Tested on: SNB-75
Experiment: Cytotoxicity against human SNB75 cells after 4 hrs by MTT assay
Format: functional, cell-based
Details: SNB-75, 4 h

## NCCNC(=O)C(CN)(Cc1ccc2ccccc2c1)Cc1ccc2ccccc2c1
  IC50: 2750 nM
  TGI: 2690 nM
read-out: LC50 (the source's name)
  CC50: 5250 nM

Reference: ChEMBL document CHEMBL2150936, “Anticancer activity of small amphipathic β²,²-amino acid derivatives” (Eur J Med Chem, 2012)
